Source: patent publication US8394797B2, “Substituted pyrazole sigma receptor antagonists” (Laboratorios Del Dr. Esteve, S.A., priority 2004, dated 2013)
Structures can show the parent of a compound that is named as a salt. Where two headings read alike, the source gives them in different places.

Legend:
[1] = tested on: capsaicin-induced mechanical allodynia in mice; assay: Effect on capsaicin in development of mechanical allodynia (von Frey filaments); type: in vivo; settings: for antiallodynic effect: mice, capsaicin, von Frey filaments
Method: Effect on Capsaicin in Development of Mechanical Allodynia This model uses the von-Frey Filaments and is a model to test the effects or symptoms of neuropathic pain, allodynia etc. […]. After habituation mice were according to FIG. 1 first treated with the test-compound (or solvent in controls). Then […] (1% DMSO) is injected into their paw resulting in developing pain in the effected paw. The effected paw is then treated with a mechanical stimulus and the latency time before the paw is withdrawn is measured.

σ1-receptor = biological target: T1, σ1-receptor (Cavia porcellus, UniProt Q60492); assay: Sigma-1 receptor binding, [3H](+)-pentazocine, brain membranes; design: species or system guinea pig; settings: for inhibition at 1 µM: 2.5 h, read-out: binding sigma-1 (*) % of radioactively labeled compound replaced by the tested compound
T1 construct: guinea pig brains were homogenized; from tissue; host or cells: guinea pig brain membranes
T1 sequence (Q60492 whole entry): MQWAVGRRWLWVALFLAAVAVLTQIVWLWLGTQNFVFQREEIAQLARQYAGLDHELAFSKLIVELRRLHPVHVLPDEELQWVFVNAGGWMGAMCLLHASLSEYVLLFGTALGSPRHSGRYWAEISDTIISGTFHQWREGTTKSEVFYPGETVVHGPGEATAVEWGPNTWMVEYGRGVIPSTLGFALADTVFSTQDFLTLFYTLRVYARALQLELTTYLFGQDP

σ2-receptor = biological target: T2, σ2-receptor (Mus musculus, UniProt Q8VD00); assay: Sigma-2 receptor binding, [3H]-DTG, brains from sigma-1 knockout mice; settings: for inhibition at 1 µM: 2 h, tested compound at 10^-6 M, [3H]-DTG 3 nM, read-out: binding sigma-2 (*) % of radioactively labeled compound replaced by the tested compound; for Ki: [3H]-DTG, sigma-1 knockout mouse brain
T2 construct: brains from sigma receptor type I (sigma-1) knockout mice were homogenized; from tissue; host or cells: brain membranes of sigma-1 knockout mice
T2 sequence (Q8VD00 1-176): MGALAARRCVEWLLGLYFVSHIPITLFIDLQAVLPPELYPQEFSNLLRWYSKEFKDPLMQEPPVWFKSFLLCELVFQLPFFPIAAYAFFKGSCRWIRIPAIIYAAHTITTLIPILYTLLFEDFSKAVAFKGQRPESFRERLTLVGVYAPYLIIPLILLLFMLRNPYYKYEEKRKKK
Method: In brief, brains from sigma receptor type I (sigma-1) knockout mice were homogenized in a volume of 10 mL/g tissue net weight of ice-cold 10 mM Tris-HCl, pH 7.4, containing 320 mM sucrose (Tris-sucrose buffer) with a Potter-Elvehjem homogenizer (10 strokes at 500 r.p.m.) The homogenates were then centrifuged at 1000 g for 10 min at 4° C., and the supernatants were saved. The pellets were resuspended by vortexing in 2 mL/g ice-cold Tris-sucrose buffer and centrifuged again at 1000 g for 10 min. The combined 1000 g supernatants were centrifuged at 31000 g for 15 min at 4° C. The pellets were resuspended by vortexing in 3 mL/g 10 mM Tris-HCl, pH 7.4, and the suspension was kept at 25° C. for 15 min.
The assay tubes contained 10 μL of [^3H]-DTG (final concentration of 3 nM), 400 μL of the tissue suspension (5.3 mL/g in 50 mM Tris-HCl, pH 8.0) to a final assay volume of 0.5 mL. Non-specific binding was defined by addition of a final concentration of 1 μM haloperidol. […] Filters were washed with three times with 5 mL volumes of cold Tris-HCl buffer (10 mM, pH 8.0). Following addition of scintillation cocktail samples were allowed to equilibrate overnight.

[2] = tested on: carrageenan-induced thermal hyperalgesia in mice; assay: Carrageenan-induced thermal hyperalgesia model (plantar test, Hargreaves); type: in vivo; settings: for activity in the carrageenan thermal hyperalgesia model: mice, two hours after carrageenan
Method: Some compounds were also evaluated for antinociceptive activity in the carrageenan-induced thermal hyperalgesia model in mice. In this model, two hours after carrageenan injection into the paw, the plantar test was used to assess thermal hyperalgesia according to the method described by Hargreaves et al. (1988). The compounds of Examples 58 and 62.

[3] = tested on: mechanical allodynia after partial sciatic nerve ligation in mice; assay: Partial sciatic nerve ligation model of neuropathic pain (von Frey test); type: in vivo; settings: 30 mg/kg s.c.; 11-13 days after surgery
Description: The von Frey test was used to assess mechanical allodynia 11-13 days after surgery.

sigma-2 site = sigma-2 site (Homo sapiens, UniProt Q5BJF2); settings: cited from earlier work
sigma-2 site, sequence (Q5BJF2 whole entry): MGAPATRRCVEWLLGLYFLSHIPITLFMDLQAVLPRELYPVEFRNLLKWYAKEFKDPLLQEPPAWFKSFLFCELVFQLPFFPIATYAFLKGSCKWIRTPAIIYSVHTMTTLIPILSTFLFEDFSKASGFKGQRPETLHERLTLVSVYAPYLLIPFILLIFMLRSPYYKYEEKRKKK

sigma-1 site = sigma-1 site (Homo sapiens, UniProt Q99720); settings: cited from earlier work
sigma-1 site, sequence (Q99720 whole entry): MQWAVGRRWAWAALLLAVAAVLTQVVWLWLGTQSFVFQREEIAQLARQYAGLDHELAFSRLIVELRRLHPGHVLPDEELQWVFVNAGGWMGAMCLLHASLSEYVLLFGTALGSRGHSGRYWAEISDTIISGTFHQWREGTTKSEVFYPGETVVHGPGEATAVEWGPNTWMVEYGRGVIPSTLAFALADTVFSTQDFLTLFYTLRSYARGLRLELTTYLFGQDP

[4] = tested compound at 10^-6 M, [3H](+)-pentazocine 0.5 nM
[5] = [3H](+)-pentazocine, guinea pig brain membranes, read-out: binding sigma-1 Ki

## c1ccc(-n2ncc3c2CCCC3CCN2CCOCC2)cc1 (stereo not shown) [Example 2, 4,5,6,7-tetrahydro-4-(2-(morpholin-4-yl)ethyl)-1-phenyl-1H-indazole oxalate]
[1]
  antiallodynic effect: clear antiallodynic effect

## C(/CN1CCC2(CC1)OCc1ccccc12)=C1/CCCc2c1cnn2-c1ccccc1.O=C(O)C(=O)O [Example 19, (E)-4,5,6,7-tetrahydro-1-phenyl-4-(2-[spiro[isobenzofuran-1(3H), 4′-piperidin]-1′-yl]ethylidene)-1H-indazole oxalate]
σ1-receptor
  Ki: 4.9 nM
  inhibition at 1 µM: 100%
other
  melting point: 155 to 157 °C
σ2-receptor
  inhibition at 1 µM: 91%
  Ki: 479 nM

## C(/CN1CCCC(c2ccccc2)C1)=C1/CCCc2c1cnn2-c1ccccc1 (stereo not shown) [Example 23, (E)-4,5,6,7-tetrahydro-1-phenyl-4-(2-(3-phenylpiperidin-1-yl)ethylidene)-1H-indazole]
σ1-receptor; [4]
  inhibition at 1 µM: 99.4%
σ1-receptor; [5]
  Ki: 23.3 nM
other
  melting point: 136 to 138 °C
σ2-receptor
  inhibition at 1 µM: 67.4%

## O=C(O)C(=O)O.c1ccc(-n2ncc3c2CCC3CCN2CCOCC2)cc1 (stereo not shown) [Example 31, 1,4,5,6-tetrahydro-4-(2-(morpholin-4-yl)ethyl)-1-phenylcyclopenta[c]pyrazole oxalate]
σ1-receptor; [4]
  inhibition at 1 µM: 101%
σ1-receptor; [5]
  Ki: 1.2 nM
other
  melting point: 159 to 161.8 °C
σ2-receptor
  inhibition at 1 µM: 88.7%
  Ki: 17.5 nM

## O=C(O)C(=O)O.c1ccc(-n2ncc3c2CCC3CCN2Cc3ccccc3C2)cc1 (stereo not shown) [Example 35, 2-(2-(1,4,5,6-tetrahydro-1-phenylcyclopenta[c]pyrazol-4-yl)ethyl)isoindoline oxalate]
σ1-receptor; [4]
  inhibition at 1 µM: 101%
σ1-receptor; [5]
  Ki: 9.3 nM
other
  melting point: 195 to 197 °C
σ2-receptor
  inhibition at 1 µM: 26.4%

## c1ccc(C2CCN(CCC3CCc4c3cnn4-c3ccccc3)CC2)cc1 (stereo not shown) [Example 36, 1,4,5,6-tetrahydro-1-phenyl-4-(2-(4-phenylpiperidin-1-yl)ethyl)cyclopenta[c]pyrazole]
σ1-receptor; [4]
  inhibition at 1 µM: 103%
σ1-receptor; [5]
  Ki: 5.9 nM
other
  melting point: 83 to 86 °C
σ2-receptor
  inhibition at 1 µM: 87.9%

## O=C(O)C(=O)O.c1ccc(-n2ncc3c2CCC3CCN2CCc3ccccc3C2)cc1 (stereo not shown) [Example 44, 1,2,3,4-tetrahydro-2-(2-(1,4,5,6-tetrahydro-1-phenylcyclopenta[c]pyrazol-4-yl)ethyl)isoquinoline oxalate]
σ1-receptor; [4]
  inhibition at 1 µM: 106%
σ1-receptor; [5]
  Ki: 2 nM
other
  melting point: 200.5 to 203 °C
σ2-receptor
  inhibition at 1 µM: 99.4%
  Ki: 159 nM

## c1ccc(-n2ncc3c2CCC3CCn2ccnc2)cc1 (stereo not shown) [Example 45, 4-(2-(1H-imidazol-1-yl)ethyl)-1,4,5,6-tetrahydro-1-phenylcyclopenta[c]pyrazole]
σ1-receptor; [4]
  inhibition at 1 µM: 76.4%
σ1-receptor; [5]
  Ki: 143 nM
other
  melting point: 102.9 to 105.7 °C
σ2-receptor
  inhibition at 1 µM: 22.8%

## C[C@@H]1CN(CCC2CCc3c2cnn3-c2ccccc2)C[C@H](C)O1.O=C(O)C(=O)O (stereo partly drawn) [Example 47, cis-1,4,5,6-tetrahydro-4-(2-(2,6-dimethylmorpholin-4-yl)ethyl)-1-phenylcyclopenta-[c]pyrazole oxalate]
σ1-receptor; [4]
  inhibition at 1 µM: 104%
σ1-receptor; [5]
  Ki: 1.8 nM
other
  melting point: 160.2 to 161.5 °C
σ2-receptor
  inhibition at 1 µM: 95.9%

## C[C@@H]1CN(CCC2CCCc3c2cnn3-c2ccccc2)C[C@H](C)O1.O=C(O)C(=O)O (stereo partly drawn) [Example 49, cis-4,5,6,7-tetrahydro-4-(2-(2,6-dimethylmorpholin-4-yl)ethyl)-1-phenyl-1H-indazole oxalate]
σ1-receptor; [4]
  inhibition at 1 µM: 101%
σ1-receptor; [5]
  Ki: 7.6 nM
other
  melting point: 186.6 to 190 °C
σ2-receptor
  inhibition at 1 µM: 94.6%

## O=C(O)C(=O)O.c1ccc(-n2ncc3c2CCC3CCN2CCC3(CC2)OCc2ccccc23)cc1 (stereo not shown) [Example 51, 1,4,5,6-tetrahydro-1-phenyl-4-(2-[spiro[isobenzofuran-1(3H), 4′-piperidin]-1′-yl]ethyl)cyclopenta[c]pyrazole oxalate]
σ1-receptor
  Ki: 31.3 nM
  inhibition at 1 µM: 107%
other
  melting point: 170.5 to 173.6 °C
σ2-receptor
  inhibition at 1 µM: 113%

## O=C(O)C(=O)O.c1ccc(-n2ncc3c2CCCC3CCN2Cc3ccccc3C2)cc1 (stereo not shown) [Example 56, 4,5,6,7-tetrahydro-4-(2-(isoindolin-2-yl)ethyl)-1-phenyl-1H-indazole oxalate]
σ1-receptor; [4]
  inhibition at 1 µM: 106%
σ1-receptor; [5]
  Ki: 0.3 nM
other
  melting point: 195.7 to 200 °C
σ2-receptor
  inhibition at 1 µM: 109%
  Ki: 1.4 nM

## Cn1ncc2c1CCCC2CCN1CCC(c2ccccc2)CC1.O=C(O)C(=O)O (stereo not shown) [Example 58, 4,5,6,7-tetrahydro-1-methyl-4-(2-(4-phenylpiperidin-1-yl)ethyl)-1H-indazole oxalate]
σ1-receptor; [4]
  inhibition at 1 µM: 106%
σ1-receptor; [5]
  Ki: 1.1 nM
σ2-receptor
  inhibition at 1 µM: 100%
  Ki: 6.3 nM
[1]; 2 mg/kg
  analgesia: 100%
[1]
  antiallodynic effect: clear antiallodynic effect
[2]; 2.5 mg/kg
  analgesia: 60%
[2]; 10 mg/kg
  analgesia: ~90%
[2]
  activity in the carrageenan thermal hyperalgesia model: highly active

## Cn1ncc2c1CCCC2CCN1Cc2ccccc2C1.O=C(O)C(=O)O (stereo not shown) [Example 60, 4,5,6,7-tetrahydro-4-(2-(isoindolin-2-yl)ethyl)-1-methyl-1H-indazole oxalate]
σ1-receptor; [4]
  inhibition at 1 µM: 104%
σ1-receptor; [5]
  Ki: 3.1 nM
other
  melting point: 150 to 151 °C
σ2-receptor
  inhibition at 1 µM: 88.2%
  Ki: 18.8 nM

## CN(CCC1CCCc2c1cnn2C)Cc1ccccc1.O=C(O)C(=O)O (stereo not shown) [Example 62, N-benzyl-2-(4,5,6,7-tetrahydro-1-methyl-1H-indazol-4-yl)-N-methylethanamine oxalate]
σ1-receptor; [4]
  inhibition at 1 µM: 104%
σ1-receptor; [5]
  Ki: 11.1 nM
other
  melting point: 140.2 to 141.7 °C
[3]
  inhibition of mechanical allodynia: significant inhibition of mechanical allodynia
σ2-receptor
  inhibition at 1 µM: 93.5%
  Ki: 11.9 nM
[1]
  antiallodynic effect: clear antiallodynic effect
[2]; 2.5 mg/kg
  analgesia: 40%
[2]; 10 mg/kg
  analgesia: 75%
[2]; 40 mg/kg
  analgesia: 90%
[2]
  activity in the carrageenan thermal hyperalgesia model: highly active

## C[C@@H]1CN(CCC2CCCc3c2cnn3-c2ccc(F)cc2)C[C@H](C)O1.O=C(O)C(=O)O (stereo partly drawn) [Example 68, cis-1-(4-fluorophenyl)-4,5,6,7-tetrahydro-4-(2-(2,6-dimethylmorpholin-4-yl)ethyl)-1H-indazole oxalate]
σ1-receptor; [4]
  inhibition at 1 µM: 98%
σ1-receptor; [5]
  Ki: 14.9 nM
other
  melting point: 164 to 169 °C
σ2-receptor
  inhibition at 1 µM: 99.8%
  Ki: 35.2 nM

## C(/CN1CCOCC1)=C1/CCCc2c1cnn2-c1ccccc1.O=C(O)C(=O)O [Example 77, (E)-4,5,6,7-tetrahydro-4-(2-(morpholin-4-yl)ethylidene)-1-phenyl-1H-indazole oxalate]
[1]
  antiallodynic effect: clear antiallodynic effect

## SKF 10047
sigma-2 site
  affinity for the sigma-2 site: micromolar affinity
sigma-1 site
  affinity for the sigma-1 site: nanomolar affinity
